Results: patent EP2987533B1, “7-substituted piperazin-1-yl fluoroquinolone compounds, their use in the treatment of cancer, pharmaceutical compositions and a method for preparation” (priority 2014, dated 2016)

Assays:
[1] = system: 60 human tumor cell line panel; assay: NCI 60 cell line one-dose SRB primary anticancer assay; type: cell-based; settings: 60 cell lines assay in one dose, 10µM (title; head prints 10.0 mM), 48 h; for inhibition at 10 µM: Homo sapiens, read-out: MGI % (Mean growth inhibition percentage)
Experimental: (§1) A primary anticancer assay was performed for an approximately 60 human tumor cell line panel derived from nine neoplastic diseases, in accordance with the protocol of the Drug Evaluation Branch, National Cancer Institute, Bethesda, MD (Monks A. et al., J. Natl. Cancer Inst 1991, 83, 757-766; Boyd M.R. and Paull K.D., Drug. Dev. Res. 1995, 34, 91-109; Shoemaker R.H., Nat. Rev. Cancer 2006, 6, 813-823). Briefly, tested compounds were added to the culture at a single concentration (10^-5M), and the cultures were incubated for 48 h. End point determinations were made with a protein binding dye, sulforhodamine B (SRB). The results for each tested compound were reported as the growth percentage of the treated cells when compared to that of the untreated control cells. The percentage growth was evaluated spectrophotometrically versus controls not treated with test agents.

[2] = system: A498; assay: NCI one-dose SRB growth assay; type: cell-based; settings: Homo sapiens; A498 (Renal Cancer), 10^-5 M, 48 h; read-out: % Growth Inhibition (GI %)
Experimental: as §1

[3] = system: A549/ATCC; assay: NCI one-dose SRB growth assay; type: cell-based; settings: Homo sapiens; A549/ATCC (Non-Small Cell Lung Cancer), 10^-5 M, 48 h; read-out: % Growth Inhibition (GI %)
Experimental: as §1

[4] = system: BT-549; assay: NCI one-dose SRB growth assay; type: cell-based; settings: Homo sapiens; BT-549 (Breast Cancer), 10^-5 M, 48 h; read-out: % Growth Inhibition (GI %)
Experimental: as §1

[5] = system: COLO 205; assay: NCI one-dose SRB growth assay; type: cell-based; settings: Homo sapiens; COLO 205 (Colon Cancer), 10^-5 M, 48 h; read-out: % Growth Inhibition (GI %)
Experimental: as §1

[6] = system: HOP-92; assay: NCI one-dose SRB growth assay; type: cell-based; settings: Homo sapiens; HOP-92 (Non-Small Cell Lung Cancer), 10^-5 M, 48 h; read-out: % Growth Inhibition (GI %)
Experimental: as §1

[7] = system: HT29; assay: NCI one-dose SRB growth assay; type: cell-based; settings: Homo sapiens, HT-29; HT29 (Colon Cancer), 10^-5 M, 48 h; read-out: % Growth Inhibition (GI %)
Experimental: as §1

[8] = system: LOX IMVI; assay: NCI one-dose SRB growth assay; type: cell-based; settings: Homo sapiens; LOX IMVI (Melanoma), 10^-5 M, 48 h; read-out: % Growth Inhibition (GI %)
Experimental: as §1

[9] = system: MALME-3M; assay: NCI one-dose SRB growth assay; type: cell-based; settings: Homo sapiens; MALME-3M (Melanoma), 10^-5 M, 48 h; read-out: % Growth Inhibition (GI %)
Experimental: as §1

[10] = system: MDA-MB-435; assay: NCI one-dose SRB growth assay; type: cell-based; settings: Homo sapiens; MDA-MB-435 (Melanoma), 10^-5 M, 48 h; read-out: % Growth Inhibition (GI %)
Experimental: as §1

[11] = system: MDA-MB-468; assay: NCI one-dose SRB growth assay; type: cell-based; settings: Homo sapiens; MDA-MB-468 (Breast Cancer), 10^-5 M, 48 h; read-out: % Growth Inhibition (GI %)
Experimental: as §1

[12] = system: NCI-H23; assay: NCI one-dose SRB growth assay; type: cell-based; settings: Homo sapiens; NCI-H23 (Non-Small Cell Lung Cancer), 10^-5 M, 48 h; read-out: % Growth Inhibition (GI %)
Experimental: as §1

[13] = system: OVCAR-8; assay: NCI one-dose SRB growth assay; type: cell-based; settings: Homo sapiens; OVCAR-8 (Ovarian Cancer), 10^-5 M, 48 h; read-out: % Growth Inhibition (GI %)
Experimental: as §1

[14] = system: RXF 393; assay: NCI one-dose SRB growth assay; type: cell-based; settings: Homo sapiens; RXF 393 (Renal Cancer), 10^-5 M, 48 h; read-out: % Growth Inhibition (GI %)
Experimental: as §1

[15] = system: SNB-75; assay: NCI one-dose SRB growth assay; type: cell-based; settings: Homo sapiens; SNB-75 (CNS Cancer), 10^-5 M, 48 h; read-out: % Growth Inhibition (GI %)
Experimental: as §1

[16] = system: T-47D; assay: NCI one-dose SRB growth assay; type: cell-based; settings: Homo sapiens, T47D; T-47D (Breast Cancer), 10^-5 M, 48 h; read-out: % Growth Inhibition (GI %)
Experimental: as §1

[17] = system: UACC-257; assay: NCI one-dose SRB growth assay; type: cell-based; settings: Homo sapiens; UACC-257 (Melanoma), 10^-5 M, 48 h; read-out: % Growth Inhibition (GI %)
Experimental: as §1

[18] = system: full panel of about 60 human tumor cell lines; assay: NCI five-dose SRB assay, full panel mean; settings: 48 h; for CC50 / GI50: Homo sapiens; for CC50: 60 cell, read-out: LC50 MG-MID (Full panel mean-graph midpoint); for GI50: read-out: GI50 MG-MID (Full panel mean-graph midpoint); for TGI MG-MID (Full panel mean-graph midpoint): five concentrations
[19] = system: leukemia; assay: NCI five-dose SRB assay, subpanel average; settings: 48 h; for GI50 / CC50: Homo sapiens; for GI50: read-out: GI50 (median growth inhibitory); for CC50: read-out: LC50 (median lethal); for TGI (total growth inhibitory): average over leukemia subpanel, five concentrations
[20] = system: NSC lung cancer; assay: NCI five-dose SRB assay, subpanel average; settings: 48 h; for GI50 / CC50: Homo sapiens; for GI50: read-out: GI50 (median growth inhibitory); for CC50: read-out: LC50 (median lethal); for TGI (total growth inhibitory): average over NSC lung cancer subpanel, five concentrations
[21] = system: colon cancer; assay: NCI five-dose SRB assay, subpanel average; settings: 48 h; for GI50 / CC50: Homo sapiens; for GI50: read-out: GI50 (median growth inhibitory); for CC50: read-out: LC50 (median lethal); for TGI (total growth inhibitory): average over colon cancer subpanel, five concentrations
[22] = system: CNS cancer; assay: NCI five-dose SRB assay, subpanel average; settings: 48 h; for GI50 / CC50: Homo sapiens; for GI50: read-out: GI50 (median growth inhibitory); for CC50: read-out: LC50 (median lethal); for TGI (total growth inhibitory): average over CNS cancer subpanel, five concentrations
[23] = system: melanoma; assay: NCI five-dose SRB assay, subpanel average; settings: 48 h; for GI50 / CC50: Homo sapiens; for GI50: read-out: GI50 (median growth inhibitory); for CC50: read-out: LC50 (median lethal); for TGI (total growth inhibitory): average over melanoma subpanel, five concentrations
[24] = system: ovarian cancer; assay: NCI five-dose SRB assay, subpanel average; settings: 48 h; for GI50 / CC50: Homo sapiens; for GI50: read-out: GI50 (median growth inhibitory); for CC50: read-out: LC50 (median lethal); for TGI (total growth inhibitory): average over ovarian cancer subpanel, five concentrations
[25] = system: renal cancer; assay: NCI five-dose SRB assay, subpanel average; settings: 48 h; for GI50 / CC50: Homo sapiens; for GI50: read-out: GI50 (median growth inhibitory); for CC50: read-out: LC50 (median lethal); for TGI (total growth inhibitory): average over renal cancer subpanel, five concentrations
[26] = system: prostate cancer; assay: NCI five-dose SRB assay, subpanel average; settings: 48 h; for GI50 / CC50: Homo sapiens; for GI50: read-out: GI50 (median growth inhibitory); for CC50: read-out: LC50 (median lethal); for TGI (total growth inhibitory): average over prostate cancer subpanel, five concentrations

O=C(O)c1cn(C2CC2)c2cc(N3CCN(S(=O)(=O)c4ccc(Cl)c(Cl)c4)CC3)c(F)cc2c1=O [Compound 3b] was tested, and the “PCE (Positive cytotoxic effect: ratio between number of cell lines with percentage growth inhibition from 10 to >100 and total number of cell lines)” value [1] was 58/58, the “RGI % (Range of growth inhibition percentage)” value [1] was >100.0 to 46.49% and the inhibition at 10 µM [1] was 89.2%. For the same compound, the inhibition at 10 µM [2] was 86.2%, the inhibition at 10 µM [3] was 94% and the inhibition at 10 µM [4] was > 100%. The inhibition at 10 µM [5] was > 100%, the inhibition at 10 µM [6] was 87.8% and the inhibition at 10 µM [7] was 99.7%. The inhibition at 10 µM [8] was 98.8%, the inhibition at 10 µM [9] was > 100% and the inhibition at 10 µM [10] was 87%. For the same compound, the inhibition at 10 µM [11] was > 100%, the inhibition at 10 µM [12] was 98.2% and the inhibition at 10 µM [13] was 94.5%. It also gave an inhibition at 10 µM [14] of 71%, an inhibition at 10 µM [15] of 86.8% and an inhibition at 10 µM [16] of 83.7%. It also gave an inhibition at 10 µM [17] of 91.1%, a CC50 [18] of 95.5 µM and a GI50 [18] of 3.09 µM. For the same compound, the “TGI MG-MID (Full panel mean-graph midpoint)” value [18] was 60.25 µM, the GI50 [19] was 3.02 µM and the CC50 [19] was > 100 µM. For the same compound, the “TGI (total growth inhibitory)” value [19] was 62.55 µM, the GI50 [20] was 3.07 µM and the CC50 [20] was > 100 µM. The “TGI (total growth inhibitory)” value [20] was 84.28 µM, the GI50 [21] was 3.79 µM and the CC50 [21] was > 100 µM. The “TGI (total growth inhibitory)” value [21] was 87.41 µM, the GI50 [22] was 3.68 µM and the CC50 [22] was > 100 µM. The “TGI (total growth inhibitory)” value [22] was “c (Compounds showed values > 100µM)”, the GI50 [23] was 2.54 µM and the CC50 [23] was 87.1 µM. The “TGI (total growth inhibitory)” value [23] was 52.41 µM, the GI50 [24] was 3.39 µM and the CC50 [24] was > 100 µM. For the same compound, the “TGI (total growth inhibitory)” value [24] was 88.90 µM, the GI50 [25] was 3.19 µM and the CC50 [25] was > 100 µM. The “TGI (total growth inhibitory)” value [25] was 87.07 µM, the GI50 [26] was 3.29 µM and the CC50 [26] was > 100 µM. For the same compound, the “TGI (total growth inhibitory)” value [26] was “c (Compounds showed values > 100µM)”.
For Cc1cc(C)c(S(=O)(=O)N2CCN(c3cc4c(cc3F)c(=O)c(C(=O)O)cn4C3CC3)CC2)c(C)c1 [Compound 6b], the “PCE (Positive cytotoxic effect: ratio between number of cell lines with percentage growth inhibition from 10 to >100 and total number of cell lines)” value [1] was 56/58, the “RGI % (Range of growth inhibition percentage)” value [1] was 91.28 to 13.08% and the inhibition at 10 µM [1] was 43.8%. For the same compound, the inhibition at 10 µM [2] was 37%, the inhibition at 10 µM [3] was 79.7% and the inhibition at 10 µM [4] was 22.7%. It also gave an inhibition at 10 µM [5] of 42.4%, an inhibition at 10 µM [6] of 53.1% and an inhibition at 10 µM [7] of 71.7%. For the same compound, the inhibition at 10 µM [8] was 70.4%, the inhibition at 10 µM [9] was 40.3% and the inhibition at 10 µM [10] was 23.9%. It also gave an inhibition at 10 µM [11] of 34.9%, an inhibition at 10 µM [12] of 42.6% and an inhibition at 10 µM [13] of 40.5%. For the same compound, the inhibition at 10 µM [14] was 48.7%, the inhibition at 10 µM [15] was 63.4% and the inhibition at 10 µM [16] was 37%. For the same compound, the inhibition at 10 µM [17] was 13.1%, the CC50 [18] was > 100 µM and the GI50 [18] was 3.01 µM. For the same compound, the “TGI MG-MID (Full panel mean-graph midpoint)” value [18] was 89.12 µM, the GI50 [19] was 2.57 µM and the CC50 [19] was > 100 µM. For the same compound, the “TGI (total growth inhibitory)” value [19] was 76.70 µM, the GI50 [20] was 2.88 µM and the CC50 [20] was > 100 µM. For the same compound, the “TGI (total growth inhibitory)” value [20] was “c (Compounds showed values > 100µM)”, the GI50 [21] was 3.46 µM and the CC50 [21] was > 100 µM. For the same compound, the “TGI (total growth inhibitory)” value [21] was “c (Compounds showed values > 100µM)”, the GI50 [22] was 2.95 µM and the CC50 [22] was > 100 µM. The “TGI (total growth inhibitory)” value [22] was “c (Compounds showed values > 100µM)”, the GI50 [23] was 22.3 µM and the CC50 [23] was > 100 µM. For the same compound, the “TGI (total growth inhibitory)” value [23] was “c (Compounds showed values > 100µM)”, the GI50 [24] was 2.89 µM and the CC50 [24] was > 100 µM. For the same compound, the “TGI (total growth inhibitory)” value [24] was “c (Compounds showed values > 100µM)”, the GI50 [25] was 2.78 µM and the CC50 [25] was > 100 µM. The “TGI (total growth inhibitory)” value [25] was “c (Compounds showed values > 100µM)”, the GI50 [26] was 3.4 µM and the CC50 [26] was > 100 µM. The “TGI (total growth inhibitory)” value [26] was “c (Compounds showed values > 100µM)”.
